According to patent US20250019379A1, “NEW CRYSTAL FORM OF COMPOUND, AND PREPARATION METHOD THEREFOR AND USE THEREOF” (E-nitiate Biopharmaceuticals (Hangzhou) Co., Ltd, priority 2021, published 2025):
Where “and” joins values, the source holds several entries; their conditions need not be identical. Equal entries are not always repeated. Marks after values point to notes of the source that are not given here.

What was measured:
[1] = Thermodynamic analysis experiment (heating, XRPD); format: physicochemical; details: compared with crystalline form H and crystalline form S
Method: Crystalline form H and crystalline form S were heated to appropriate temperatures under N2 protection, and after cooling to room temperature, the XRPD of the solids was measured.

[2] = Suspension competition experiment; format: physicochemical; details: compared with crystalline form O and crystalline form P; room temperature and 60° C.
Method: Place them at room temperature and 60° C. with magnetic stirring for about 1 hour respectively. […] Solids are used for XRPD testing.

[3] = Solid state stability (HPLC purity, XRPD); format: physicochemical; details: for Purity (%): open
Method: Purity testing (via HPLC) and crystal form detection (via XRPD) were performed on starting samples, samples stored for one week, and samples stored for two weeks.

[4] = system: atopic dermatitis animal model; assay: Atopic dermatitis animal model (dinitrochlorobenzene induced); format: in vivo, BALB/C mice; details: for Inhibition rate of auricular thickening / Inhibition rate of skin thickening: 10th day of treatment
Description: BALB/C mice, 55 pieces, female, were 6 weeks old at the time of purchase and 8 weeks old at the time of experiment, weighing 18 g-20 g. The animals were from Shanghai Lingchang Biotechnology Co, Ltd (SCXK (Shanghai) 2018-0003), experimental animal production certificate number 20180003012342: experimental animal use license number; SYXK(Shanghai)2020-0001 (Via Biotechnology (Shanghai) Ltd.).
Modeling and administration method; Use depilatory cream to remove the hair of an area of about 5 cm×2 cm from the top of the head to the back of each animal. The application time of the depilatory cream should be controlled within 2 minutes. Wash the depilated area with warm water and wash off the depilatory agent, immediately use a hair dryer to dry the animal's hair, and place the animal on a 37° C. constant-temperature electric blanket for 1 h-2 h. After the animal moves freely, place it in a breeding cage and recover for 1 day (if the animal's skin is red, swollen and damaged after hair removal, it will its elimination). On the second day, 42 animals with normal skin were selected and randomly divided into groups according to body weight, with 6 animals in each group, totaling 7 groups. Except for the G1 normal control group, each animal in the other groups was evenly smeared with 200 μL of 0.5 wt % dinitrochlorobenzene solution (the solvent was acetone and olive oil with a mass ratio of 3:1) on the back and auricle for three consecutive days every day. Induction (the first stage of induction), the second stage of induction started after 14 days, and was induced with 1 wt % dinitrochlorobenzene solution (the solvent was acetone and olive oil with a mass ratio of 3:1) every three days until the end of the experiment, start treatment and administration at the same time, and group administration is shown in Table 6.
Skin thickness (double layer): Use a vernier caliper to measure the double layer thickness of the back skin on the 1 day before modeling, and on the 14th, 17th, 20th, 23rd, 26th, and 28th days after modeling.
Auricle thickness: Use a vernier caliper to measure the thickness of the right auricle 1 day before modeling, and on days 14, 17, 20, 23, 26, and 28 after modeling.
AD-SI score: The condition score refers to the clinical SI scoring standard, and scores three indicators: skin color/erythema, scaly erythema, scaly/peeling/lichenification, thickening, and thickening/edema degree. The total score is 12 points. Scoring standard as follows:
Erythema/skin color: 0 points, none; 1 points, slight: light red; 2 points, moderate: red; 3 points, significant: dark red; 4 points, very obvious: extremely deep red.
Scaling/peeling/lichenification: 0 points, none; 1 point, slight: there are scales/peeling/lichenification on part of the epidermis, mainly subtle; 2 points, moderate: most of the skin surface is completely or incompletely covered with Scaling/peeling/lichenification, flaky; 3 points, significant: almost all skin is covered with scales/peeling/lichenification, and the scales/peeling/lichenification are thick and layered; 4 points, very obvious: all skin is covered with Scaling/peeling/lichenification, very thick and layered.
Thickening/edema: 0 points, none: flush with normal skin; 1 points, slight: slightly higher than the normal skin surface: 2 points, moderate: moderately raised, with round or sloped plaque edges: 3 points, obvious Score: The plaque is hypertrophic and the bulge is obvious; 4 points, very significant: it is highly thickened and the bulge is very obvious. Skin/auricle hyperplasia inhibition rate (%)=1−[(skin/auricle thickness of the treatment group−skin/auricle thickness of the blank control group)/skin/auricle thickness of the negative control group−skin/auricle of the blank control group thickness)]%.
All data are expressed as Mean±SD or Mean±SEM. Use the statistical analysis software SPSS23.0 to conduct normal distribution and homogeneity of variance tests on the data. […]

[5] = 3 mg/kg oral twice a day, Day 0
[6] = 3 mg/kg oral twice a day, Day 1
[7] = 3 mg/kg oral twice a day, Day 4
[8] = 3 mg/kg oral twice a day, Day 7
[9] = 3 mg/kg oral twice a day, Day 10
[10] = 10 mg/kg oral twice a day, listed as crystalline form A
[11] = 10 mg/kg oral twice a day, Day 0
[12] = 10 mg/kg oral twice a day, Day 1
[13] = 10 mg/kg oral twice a day, Day 4
[14] = 10 mg/kg oral twice a day, Day 7
[15] = 10 mg/kg oral twice a day, Day 10
[16] = 10 mg/kg oral twice a day, Day 10, listed as crystalline form A
[17] = 30 mg/kg oral twice a day, listed as crystalline form A
[18] = 30 mg/kg oral twice a day, Day 0
[19] = 30 mg/kg oral twice a day, Day 1
[20] = 30 mg/kg oral twice a day, Day 4
[21] = 30 mg/kg oral twice a day, Day 7
[22] = 30 mg/kg oral twice a day, Day 10
[23] = 30 mg/kg oral twice a day, Day 10, listed as crystalline form A

For `C[C@@H](O)c1nc2cnc3[nH]ccc3c2n1N1CCC(CC#N)CC1` [Crystalline form A, (R)-2-(1-(2-(1-hydroxyethyl)imidazo[4,5-d]pyrrolo[2,3-b]pyridine-1(6H)-yl)piperidin-4-yl)acetonitrile], the thermodynamic stability [1] was “thermodynamically more stable”, the “stability in suspension competition” value [2] was “more stable” and the “solid-state stability (conclusion)” value [3] was “good solid-state stability”. For the same compound, the “Purity (%)” value ([3]; 1 week, 25° C./60% RH) was 99.64%, the “Purity (%)” value ([3]; 1 week, 40° C./75% RH) was 99.62% and the “Purity (%)” value ([3]; 1 week, 60° C.) was 99.62%. For the same compound, the Crystal form changes ([3]; 1 week, 25° C./60% RH, 40° C./75% RH, 60° C.) was “no change”, the “Purity (%)” value ([3]; 2 week, 25° C./60% RH) was 99.60% and the “Purity (%)” value ([3]; 2 week, 40° C./75% RH) was 99.60%. For the same compound, the “Purity (%)” value ([3]; 2 week, 60° C.) was 99.66%, the Crystal form changes ([3]; 2 week, 25° C./60% RH, 40° C./75% RH, 60° C.) was “no change” and the “change in the crystalline form (XRPD)” value ([3]; after one week and two weeks of storage under the selected conditions) was “no change”. For the same compound, the change in purity ([3]; after one week and two weeks under the selected conditions) was “no significant change”, the “Starting sample Purity (%)” value ([3]; starting sample) was 99.59% and the “Inhibition rate of auricular thickening” value ([4]; 3 mg/kg oral twice a day) was 37.93%. For the same compound, the “Inhibition rate of skin thickening” value ([4]; 3 mg/kg oral twice a day) was 14.43%, the AD-SI score [4, 5] was 0.00 points and the Average auricle thickness [4, 5] was 0.20 ± 0.00 mm. The “Average skin thickness (double layer)” value [4, 5] was 0.63 ± 0.01 mm, the AD-SI score [4, 6] was 0.00 points and the Average auricle thickness [4, 6] was 0.22 ± 0.01 mm. The “Average skin thickness (double layer)” value [4, 6] was 0.98 ± 0.01 mm, the AD-SI score [4, 7] was 1.00 ± 0.00 points and the Average auricle thickness [4, 7] was 0.30 ± 0.01 mm. For the same compound, the “Average skin thickness (double layer)” value [4, 7] was 1.08 ± 0.01 mm, the AD-SI score [4, 8] was 6.50 ± 1.05 points and the Average auricle thickness [4, 8] was 0.39 ± 0.03 mm. For the same compound, the “Average skin thickness (double layer)” value [4, 8] was 1.85 ± 0.12 mm, the AD-SI score [4, 9] was 5.83 ± 0.75 points and the Average auricle thickness [4, 9] was 0.57 ± 0.04 mm and 0.57 mm. For the same compound, the “Average skin thickness (double layer)” value [4, 9] was 2.35 ± 0.15 mm and 2.35 mm, the “Inhibition rate of auricular thickening” value ([4]; 10 mg/kg oral twice a day) was 43.10% and the “Inhibition rate of skin thickening” value ([4]; 10 mg/kg oral twice a day) was 20.40%. For the same compound, the “Inhibition rate of auricular thickening” value [4, 10] was 43.1%, the “Inhibition rate of skin thickening” value [4, 10] was 20.4% and the AD-SI score [4, 11] was 0.00 points. The Average auricle thickness [4, 11] was 0.20 ± 0.01 mm, the “Average skin thickness (double layer)” value [4, 11] was 0.60 ± 0.02 mm and the AD-SI score [4, 12] was 0.00 points. The Average auricle thickness [4, 12] was 0.23 ± 0.01 mm, the “Average skin thickness (double layer)” value [4, 12] was 0.94 ± 0.02 mm and the AD-SI score [4, 13] was 0.50 ± 0.55 points. The Average auricle thickness [4, 13] was 0.32 ± 0.01**^ mm, the “Average skin thickness (double layer)” value [4, 13] was 1.14 ± 0.04 mm and the AD-SI score [4, 14] was 5.83 ± 1.17 points. For the same compound, the Average auricle thickness [4, 14] was 0.43 ± 0.03 mm, the “Average skin thickness (double layer)” value [4, 14] was 1.49 ± 0.09 mm and the AD-SI score [4, 15] was 4.67 ± 0.52 points. The Average auricle thickness [4, 15] was 0.54 ± 0.07 mm and 0.54 mm, the “Average skin thickness (double layer)” value [4, 15] was 2.23 ± 0.17 mm and 2.23 mm and the AD-SI score [4, 16] was 4.67 points. The Average auricle thickness [4, 16] was 0.54 mm, the “Average skin thickness (double layer)” value [4, 16] was 2.23 mm and the “Inhibition rate of auricular thickening” value ([4]; 30 mg/kg oral twice a day) was 50.00%. For the same compound, the “Inhibition rate of skin thickening” value ([4]; 30 mg/kg oral twice a day) was 53.73%, the “Inhibition rate of auricular thickening” value [4, 17] was 50% and the “Inhibition rate of skin thickening” value [4, 17] was 53.73%. For the same compound, the AD-SI score [4, 18] was 0.00 points, the Average auricle thickness [4, 18] was 0.21 ± 0.01 mm and the “Average skin thickness (double layer)” value [4, 18] was 0.62 ± 0.02 mm. For the same compound, the AD-SI score [4, 19] was 0.00 points, the Average auricle thickness [4, 19] was 0.22 ± 0.01 mm and the “Average skin thickness (double layer)” value [4, 19] was 0.79 ± 0.05 mm. The AD-SI score [4, 20] was 0.50 ± 0.55 points, the Average auricle thickness [4, 20] was 0.29 ± 0.02 mm and the “Average skin thickness (double layer)” value [4, 20] was 1.05 ± 0.03 mm. The AD-SI score [4, 21] was 3.00 ± 2.19 points, the Average auricle thickness [4, 21] was 0.32 ± 0.01 mm and the “Average skin thickness (double layer)” value [4, 21] was 1.01 ± 0.08 mm. The AD-SI score [4, 22] was 3.50 ± 1.39 points, the Average auricle thickness [4, 22] was 0.50 ± 0.03 mm and 0.50 mm and the “Average skin thickness (double layer)” value [4, 22] was 1.56 ± 0.21 mm and 1.56 mm. The AD-SI score [4, 23] was 3.5 points, the Average auricle thickness [4, 23] was 0.5 mm and the “Average skin thickness (double layer)” value [4, 23] was 1.56 mm.
